Measurements published in PubChem BioAssay AID2060887 (Molecular Pharmacology Branch, DTP, NCI, 2025).
pIC50: −log10 of the molar value. “And” between values parts separate entries of the source, which are not always exact repeats. Identical values can stand only once.

Tested on: 782815-120-R-J1-PDC complex spheroid viability
Experiment: Anticancer human tumor 782815-120-R-J1-PDC patient-derived colon adenocarcinoma cell line growth inhibition [RAS]
Conditions: for viability, T/C: stronger effect = lower value
Text: RAS pathway inhibitors in Combinations in Complex Spheroids
A high-throughput screen of multi-cell type tumor spheroids was designed to identify active combinations of RAS pathway inhibitors and targeted small molecules. Complex spheroids include a stromal component modeled by human endothelial cells (HUVEC) and fibroblasts modeled by human mesenchymal stem cells (MSCs). The concentration ranges selected for each drug and investigational agent were based upon clinically achievable concentrations if the clinical Cmax of the agent was known.
Compounds. The drugs and investigational agents: abemaciclib (NSC768073), cobimetinib (NSC768068), divarasib (GDC6063, NSC841802), docetaxel (NSC628503), GDC-1971 (RLY-1971, NSC841576), gemcitabine (NSC613327), inavolisib (NSC800729), ipatasertib (NSC767898), KB-0742 (NSC834161), MRTX-1133 (NSC836407), osimertinib (NSC779217), RMC-4630 (NSC839698), RMC-6236 (NSC851965), RMC-6291 (NSC852671), Ro-3306 (NSC812927), sapanisertib (NSC764658), SN-38 (NSC673596), staurosporine (NSC755774), SY5609 (NSC837396), and tovorafenib (DAY101, NSC766906), were obtained from the National Cancer Institute (NCI) Developmental Therapeutics Program Chemical Repository. The FDA-approved anticancer drug set is available from the NCI Developmental Therapeutics Program. […] The stock solutions were prepared in dimethyl sulfoxide (DMSO, Sigma-Aldrich, St. Louis, MO, cat. D2650) at 800-fold the tested concentration and stored at -70 degrees C prior to their use. All drugs and investigational agents were tested over a range starting from a high concentration at or near the clinical Cmax and decreasing in half-log increments. If the clinical Cmax for an agent had not been determined, the highest concentration tested was 10 microM.
Cell Culture. All cells were maintained in an incubator at 37 degrees C and 5% CO2 with 95% humidity. The PDC lines were cultured according to standard operating procedures established by the NCI PDMR. All PDCs were thawed and cultured in Matrigel-coated flasks prepared with a working solution of 1X Ham's F-12 nutrient mix, without supplementation (Invitrogen, Waltham, MA, cat. 11765054), 100 U/mL penicillin-streptomycin (Invitrogen, cat. 15140122), and 2.5% Matrigel (Corning Inc., Corning, NY, cat. 354248) for the first three passages. The 362531-283-R-J2-PDC and 782815-120-R-J1-PDC lines were cultured in 6C/Colon 1B media, which includes advanced DMEM/F-12 (Thermo Fisher Scientific, cat. 12634028), 10 mM HEPES (Thermo Fisher Scientific, cat. 15630080), 1X GlutaMAX supplement (Thermo Fisher Scientific, cat. 35050061), 0.1 mg/mL primocin (InvivoGen, San Diego, CA, cat. ant-pm-2), 10% defined fetal bovine serum, heat inactivated (HyClone Laboratories Inc., Logan, UT, cat. SH30070.03HI), 50% L-WRN conditioned media (ATCC, cat. CRL-3276), 1.25 mM N-Acetyl-L-cysteine (Sigma-Aldrich, cat. A9165), 10 mM nicotinamide (Sigma-Aldrich, cat. N0636), 1X B-27 supplement (Thermo Fisher Scientific, cat. 17504044), 1X N-2 supplement (Thermo Fisher Scientific, cat. 17502048), 50 ng/mL human EGF (Thermo Fisher Scientific, cat. PHG0311), and 10 microM Y-27632 dihydrochloride (Tocris Bioscience, cat. 1254). The K12877-001-R-J1-PDC line was cultured in 6I media, which includes all 6C/Colon 1B media plus 10 ng/mL human FGF-10 (PeproTech, cat. 100-26), 1 ng/mL human FGF-2 (PeproTech, cat. 100-18B), 1 µM prostaglandin E2 (Tocris Bioscience, cat. 2296), […] hydrocortisone (Sigma-Aldrich, cat. H4001), and […] bovine insulin (Sigma-Aldrich, cat. I6634). The K86415-001-R-J1-PDC line was cultured in 6D media, which includes all 6C/Colon 1B media components minus the L-WRN conditioned media. The 485176-168-R4-J1-PDC was cultured in PANC media, which includes all 6C/Colon 1B media plus 100 ng/mL human FGF-10 (PeproTech, cat. 100-26), 500 nM SB-431542 (Selleckchem, cat. S1067), and 10 nM gastrin (Tocris Bioscience, cat. 3006). […]

[1] = curve of first compound, second compound 0.0316 µM
[2] = curve of first compound, second compound 0.1 µM
[3] = curve of first compound, second compound 0.316 µM
[4] = curve of first compound, second compound 1 µM
[5] = curve of first compound, second compound 3.16 µM
[6] = curve of first compound, second compound 10 µM
[7] = second compound 0.0316 µM, first compound 0.00316 µM
[8] = second compound 0.0316 µM, first compound 0.01 µM
[9] = second compound 0.0316 µM, first compound 0.0316 µM
[10] = second compound 0.0316 µM, first compound 0.1 µM
[11] = second compound 0.0316 µM, first compound 0.316 µM
[12] = second compound 0.0316 µM, first compound 1 µM
[13] = second compound 0.1 µM, first compound 0.00316 µM
[14] = second compound 0.1 µM, first compound 0.01 µM
[15] = second compound 0.1 µM, first compound 0.0316 µM
[16] = second compound 0.1 µM, first compound 0.1 µM
[17] = second compound 0.1 µM, first compound 0.316 µM
[18] = second compound 0.1 µM, first compound 1 µM
[19] = second compound 0.316 µM, first compound 0.00316 µM
[20] = second compound 0.316 µM, first compound 0.01 µM
[21] = second compound 0.316 µM, first compound 0.0316 µM
[22] = second compound 0.316 µM, first compound 0.1 µM
[23] = second compound 0.316 µM, first compound 0.316 µM
[24] = second compound 0.316 µM, first compound 1 µM
[25] = second compound 1 µM, first compound 0.00316 µM
[26] = second compound 1 µM, first compound 0.01 µM
[27] = second compound 1 µM, first compound 0.0316 µM
[28] = second compound 1 µM, first compound 0.1 µM
[29] = second compound 1 µM, first compound 0.316 µM
[30] = second compound 1 µM, first compound 1 µM
[31] = second compound 3.16 µM, first compound 0.00316 µM
[32] = second compound 3.16 µM, first compound 0.01 µM
[33] = second compound 3.16 µM, first compound 0.0316 µM
[34] = second compound 3.16 µM, first compound 0.1 µM
[35] = second compound 3.16 µM, first compound 0.316 µM
[36] = second compound 3.16 µM, first compound 1 µM
[37] = second compound 10 µM, first compound 0.00316 µM
[38] = second compound 10 µM, first compound 0.01 µM
[39] = second compound 10 µM, first compound 0.0316 µM
[40] = second compound 10 µM, first compound 0.1 µM
[41] = second compound 10 µM, first compound 0.316 µM
[42] = second compound 10 µM, first compound 1 µM
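Note: spheroids exposed to compounds for 7 days before reading.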
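Throughout, for viability, T/C: 100% = DMSO vehicle control viability.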

CC(=O)OC12COC1CC(O)C1(C)C(=O)C(O)C3=C(C)C(OC(=O)C(O)C(NC(=O)OC(C)(C)C)c4ccccc4)CC(O)(C(OC(=O)c4ccccc4)C21)C3(C)C (stereo not given)
viability, T/C (compound 0.0316 µM): 35% [middle of 4 runs]
viability, T/C (compound 0.1 µM): 33.6% [middle of 4 runs]
viability, T/C (compound 0.316 µM): 25.9% [middle of 4 runs]
viability, T/C (compound 1 µM): 27.1% [middle of 4 runs]
viability, T/C (compound 3.16 µM): 27.9% [middle of 4 runs]
viability, T/C (compound 10 µM): 33.1% [middle of 4 runs]
pIC50 (curve of compound): > 7.50

Cc1nc(N2CCC3(CC2)COC(C)C3N)c(CO)nc1Sc1ccnc(N)c1Cl (stereo not given)
viability, T/C (compound 0.0316 µM): 96.6% [middle of 4 runs]
viability, T/C (compound 0.1 µM): 99.8% [middle of 4 runs]
viability, T/C (compound 0.316 µM): 93.7% [middle of 4 runs]
viability, T/C (compound 1 µM): 94.7% [middle of 4 runs]
viability, T/C (compound 3.16 µM): 98.3% [middle of 4 runs]
viability, T/C (compound 10 µM): 104% [middle of 4 runs]
pIC50 (curve of compound): < 5.00

NC1c2ccccc2OC12CCN(c1cnc3c(N4CCCc5ncccc54)n[nH]c3n1)CC2 (stereo not given)
viability, T/C (compound 0.0316 µM): 99% [middle of 4 runs]
viability, T/C (compound 0.1 µM): 96.6% [middle of 4 runs]
viability, T/C (compound 0.316 µM): 104% [middle of 4 runs]
viability, T/C (compound 1 µM): 95% [middle of 4 runs]
viability, T/C (compound 3.16 µM): 102% and 94.6% and 99.8% (2×)
viability, T/C (compound 10 µM): 86.9% [middle of 4 runs]
pIC50 (curve of compound): < 5.00

C=CC(=O)Nc1cc(Nc2nccc(-c3cn(C)c4ccccc34)n2)c(OC)cc1N(C)CCN(C)C + C#Cc1c(F)ccc2cc(O)cc(-c3ncc4c(N5CC6CCC(C5)N6)nc(OCC56CCCN5CC(F)C6)nc4c3F)c12
pIC50 [1]: < 6.00
pIC50 [2]: < 6.00
pIC50 [3]: < 6.00
pIC50 [4]: < 6.00
pIC50 [5]: < 6.00
pIC50 [6]: < 6.00
viability, T/C [7]: 99.3%
viability, T/C [8]: 93.8%
viability, T/C [9]: 101%
viability, T/C [10]: 97.2%
viability, T/C [11]: 98.9%
viability, T/C [12]: 93.6%
viability, T/C [13]: 103%
viability, T/C [14]: 97.2%
viability, T/C [15]: 97.5%
viability, T/C [16]: 93.6%
viability, T/C [17]: 101%
viability, T/C [18]: 89.5%
viability, T/C [19]: 98.2%
viability, T/C [20]: 94.3%
viability, T/C [21]: 105%
viability, T/C [22]: 89%
viability, T/C [23]: 95%
viability, T/C [24]: 101%
viability, T/C [25]: 95.5%
viability, T/C [26]: 96%
viability, T/C [27]: 101%
viability, T/C [28]: 92.4%
viability, T/C [29]: 100%
viability, T/C [30]: 101%
viability, T/C [31]: 99.9%
viability, T/C [32]: 101%
viability, T/C [33]: 98.4%
viability, T/C [34]: 94.4%
viability, T/C [35]: 97%
viability, T/C [36]: 95.8%
viability, T/C [37]: 100%
viability, T/C [38]: 91.7%
viability, T/C [39]: 110%
viability, T/C [40]: 101%
viability, T/C [41]: 94.4%
viability, T/C [42]: 91.7%

O=C(c1ccc(F)c(F)c1Nc1ccc(I)cc1F)N1CC(O)([C@@H]2CCCCN2)C1 + C#Cc1c(F)ccc2cc(O)cc(-c3ncc4c(N5CC6CCC(C5)N6)nc(OCC56CCCN5CC(F)C6)nc4c3F)c12
pIC50 [1]: 7.07
pIC50 [2]: 7.24
pIC50 [3]: 7.18
pIC50 [4]: 7.10
pIC50 [5]: 7.27
pIC50 [6]: 7.23
viability, T/C [7]: 95.6%
viability, T/C [8]: 95%
viability, T/C [9]: 66%
viability, T/C [10]: 47.1%
viability, T/C [11]: 23.6%
viability, T/C [12]: 3.7%
viability, T/C [13]: 97.4%
viability, T/C [14]: 81%
viability, T/C [15]: 61.5%
viability, T/C [16]: 38.6%
viability, T/C [17]: 20.8%
viability, T/C [18]: 4.18%
viability, T/C [19]: 98.7%
viability, T/C [20]: 88.4%
viability, T/C [21]: 63.1%
viability, T/C [22]: 42.2%
viability, T/C [23]: 19.1%
viability, T/C [24]: 2.93%
viability, T/C [25]: 97.8%
viability, T/C [26]: 85.4%
viability, T/C [27]: 69.7%
viability, T/C [28]: 46.5%
viability, T/C [29]: 18.1%
viability, T/C [30]: 1.87%
viability, T/C [31]: 99.4%
viability, T/C [32]: 85.9%
viability, T/C [33]: 59.1%
viability, T/C [34]: 40.7%
viability, T/C [35]: 10.4%
viability, T/C [36]: 0.92%
viability, T/C [37]: 98.4%
viability, T/C [38]: 88.3%
viability, T/C [39]: 61.4%
viability, T/C [40]: 41.2%
viability, T/C [41]: 10.1%
viability, T/C [42]: 0.5%
